Key:
human AIM2 protein = target: T1, human AIM2 protein (Homo sapiens, UniProt O14862); test: Affinity by SPR (Biacore, CM5 chip amino-coupling), human AIM2; details: human full-length AIM2 protein, read-out: binding constant KD
T1 construct: a human full-length AIM2 protein is expressed and purified firstly by pET28A vector; made in house
T1 sequence (O14862 1-343): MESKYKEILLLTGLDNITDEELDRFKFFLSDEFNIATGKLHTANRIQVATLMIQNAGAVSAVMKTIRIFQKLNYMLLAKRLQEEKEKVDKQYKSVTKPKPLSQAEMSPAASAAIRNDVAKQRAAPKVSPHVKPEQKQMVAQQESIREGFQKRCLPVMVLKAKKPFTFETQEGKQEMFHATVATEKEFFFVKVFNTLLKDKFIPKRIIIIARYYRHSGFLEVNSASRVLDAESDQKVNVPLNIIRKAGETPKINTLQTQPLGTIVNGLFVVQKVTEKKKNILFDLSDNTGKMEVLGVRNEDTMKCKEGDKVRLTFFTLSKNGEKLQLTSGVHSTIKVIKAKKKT
Description: In the embodiment of the disclosure, the affinity between T6S1683 and human AIM2 protein is detected. Specifically, a human full-length AIM2 protein is expressed and purified firstly by pET28A vector, and then the affinity is determined by CM5 chip amino-coupling method through a surface-plasmon resonance (SPR) method of Biacore.

mouse AIM2 protein = target: T2, mouse AIM2 protein (Mus musculus, UniProt Q91VJ1); test: Affinity by SPR (Biacore, CM5 chip amino coupling), mouse AIM2; details: mouse full-length AIM2 protein, read-out: binding constant KD
T2 construct: a mouse full-length AIM2 protein is expressed and purified firstly by pET28A vector; made in house
T2 sequence (Q91VJ1 1-354): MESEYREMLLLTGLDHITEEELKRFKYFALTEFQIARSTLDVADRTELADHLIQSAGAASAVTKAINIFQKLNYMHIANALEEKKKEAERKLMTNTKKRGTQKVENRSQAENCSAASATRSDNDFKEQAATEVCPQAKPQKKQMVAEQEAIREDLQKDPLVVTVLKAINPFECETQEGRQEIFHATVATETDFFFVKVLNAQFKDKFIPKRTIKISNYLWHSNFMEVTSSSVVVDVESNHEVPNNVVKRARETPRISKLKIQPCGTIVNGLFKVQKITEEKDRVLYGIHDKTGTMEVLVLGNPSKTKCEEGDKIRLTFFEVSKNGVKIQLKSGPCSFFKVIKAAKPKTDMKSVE
Description: In the embodiment of the disclosure, the affinity between T6S1683 and mouse AIM2 protein is detected. Specifically, a mouse full-length AIM2 protein is expressed and purified firstly by pET28A vector, and then the affinity is determined by CM5 chip amino coupling method by the SPR method of Biacore.

[1] = system: IL-1β mRNA in HaCaT cells; test: Real-time fluorescence PCR of IL-1β mRNA in HaCaT cells stimulated by OligodA-T; type: cell-based; details: 10 uM, 24 hours
Description: The protective ability of 44 compounds screened above against cell pyroptosis of HaCaT cells stimulated by OligodA-T is evaluated by the real-time fluorescent quantitative polymerase chain reaction (PCR) detection of IL-1β mRNA in the stimulated cells. […] Positive control (PC) and negative control (NC) are set in the experimental group. An inclusion of Lip3000 (Lipofectamine™ 3000 Transfection Reagent) and OligodA-T (OligodA-T: Lip3000:P3000=1:1:25, a concentration of OligodA-T is 1 microgram per […] abbreviated as ug/mL) is used to transfect HaCat cells. […] Each experimental group is incubated in a cell incubator containing 5% CO2 for 24 hours at 37° C., and the cells are collected for real-time fluorescence PCR detection.
• (1) A positive control (PC), a negative control (NC) and respective treatment groups are set. […] The HaCat cells are co-transfected with inclusions of Lip3000-OligodA-T at gradient doses (0.1 uM, 1 uM, 5 uM, 10 uM and 25 uM) of T6S1683 in the respective treatment groups. • (2) The positive control (PC), the negative control (NC) and the respective treatment groups are incubated in a cell incubator containing 5% CO2 at 37° C. for 24 hours, and the cells are collected for real-time fluorescence PCR detection to observe the effects of different doses of inhibitors on the activation of AIM2 pathway in the HaCaT cells.

HaCaT cells = test: Cell state (pyroptosis) of OligodA-T transfected HaCaT cells under microscope; type: cell-based; details: 10 uM, microscope 100×
[2] = system: AIM2 downstream protein in HaCat cells; test: AIM2 downstream protein expression in HaCaT cells (Western Blot, ELISA); type: cell-based; details: 10 uM
IMQ mice = test: IMQ psoriasis mouse model: PASI scores, skin and pathological phenotypes; type: in vivo, C57/BL6 mice
Description: (§1) In the embodiment of the disclosure, dimethyl sulfoxide (DMSO) is used to dissolve T6S1683 powder, the powder is weighed according to different dosage, then diluted with β-cyclodextrin, and a final concentration of DMSO shall not exceed 5%. The dose gradients of T6S1683 set are 0 mg/kg, 1 mg/kg, 2.5 mg/kg, 5 mg/kg and 10 mg/kg respectively. Each mouse is calculated as 20 grams (g), and 0 mg/kg, 1 mg/kg, 2.5 mg/kg, 5 mg/kg and 10 mg/kg of T6S1683 are administered respective mice every day.
Seven-week-old C57/BL6 mice are selected, fed and modeled in a […] (SPF) environment. The experimental groups are as follows. (a) mouse skin smeared with IMQ and 0 mg/kg of T6S1683; (b) mouse skin smeared with IMQ and 1 mg/kg of T6S1683; (c) mouse skin smeared with IMQ and 2.5 mg/kg of T6S1683; (d) mouse skin smeared with IMQ and 5 mg/kg of T6S1683; (e) mouse skin smeared with IMQ and 10 mg/kg of T6S1683; (f) mouse skin smeared with Vaseline and 0 mg/kg of T6S1683; (g) mouse skin smeared with Vaseline and 1 mg/kg of T6S1683; (h) mouse skin smeared with Vaseline and 2.5 mg/kg of T6S1683; (i) mouse skin smeared with Vaseline and 5 mg/kg of T6S1683; and (j) mouse skin smeared with Vaseline and 10 mg/kg of T6S1683. (Note: the daily dosage of IMQ in groups (a), (b), (c), (d) and (e) is 62.5 mg/mouse, and the daily dosage of Vaseline in groups (f), (g), (h), (i) and (j) is 62.5 mg/mouse.)
Six mice in each group above, and the mice are shaved back hair to make an exposed skin reach 4 square centimeters. A start date of the experiment is set as Day 0 and an end date is set as Day 6. From Day 0 to Day 5, 500 μL medicine solution is applied daily and evenly smeared mouse skin to absorb, with 500 uL applied in the morning at a dose of 150 uL, at noon at 200 uL, and at night at 150 uL. […] The mouse skins are scored every day, the mice are sacrificed on Day 6, and skin tissue is taken for a series of tests. […]

[3] = system: TCRγ/CD3^+RORγt cells in the lymphocytes of mouse skin; test: Flow cytometry of skin lymphocytes of IMQ mice; type: in vivo, C57/BL6 mice; details: 5 mg/kg, smeared on skin
Description: as §1
(§2) Seven-week-old C57/BL6 mice are selected, fed and modeled in a […] (SPF) environment. The experimental groups are as follows. […]
(§3) Six mice in each group above, and the mice are shaved back hair to make an exposed skin reach 4 square centimeters. […] The mouse skins are scored every day, the mice are sacrificed on Day 6, and skin tissue is taken for a series of tests.
Next, skin lymphocytes of the mice in each group (proportion of TCRγ/CD3^+RORγt cells in the lymphocytes of mouse skin, which are the main effector cells mediated by AIM2 pathway in psoriasis and can secrete a large amount of IL-17 cytokines to aggravate psoriasis) are detected by flow cytometry.

[4] = system: IL-1β gene expression in the mouse skin; test: Transcription levels of AIM2 pathway genes in skin of IMQ mice; type: in vivo, C57/BL6 mice; details: 5 mg/kg, smeared on skin
Description: as §1, §2, §3

In the case of `COc1cc(/C=C/C(=O)CC(=O)/C=C/c2ccc(O)cc2)ccc1O` [T6S1683, 1,6-heptadiene-3,5-dione,1-(4-hydroxy-3-methoxyphenyl)-7-(4-hydroxyphenyl)-,(1E, 6E)-], the Kd (human AIM2 protein) is reported as 1.56 µM, the Kd (mouse AIM2 protein) is reported as 5.12 µM and the “IL-β transcription levels compared to the PC group” value ([1]; among 5 dose gradients (0.1, 1, 5, 10, 25 uM)) is reported as “reduced IL-β transcription levels in the HaCat cells the most”. The “inhibitory effect on IL-1β mRNA compared with the positive control” value ([1]; screening of 44 compounds, OligodA-T 1 ug/mL) was “most significant inhibitory effect”, the cell state (HaCaT cells) was “close to that of the NC group” and the “expression of AIM2 downstream protein (Western Blot)” value [2] was “slightly decreases”. For the same compound, the “secretion of IL-1β (ELISA)” value [2] was “inhibitory effect”, the “effect on inflammatory phenotype of IMQ mice” value (IMQ mice; 1 mg/kg, smeared on skin) was “no difference” and the “reduction effect on inflammatory phenotype of IMQ mice” value (IMQ mice; 5 mg/kg, smeared on skin) was “the most significant”. For the same compound, the “inflammatory phenotype of IMQ mice” value (IMQ mice; three doses, smeared on skin daily Day 0 to Day 5) was “reduced the inflammatory phenotype of IMQ mice to varying degrees”, the “proportion of TCRγ/CD3^+RORγt compared with IMQ mice without T6S1683” value [3] was “significantly lower” and the “IL-1β gene expression level in mouse skin” value [4] was “significantly down-regulated”.

Source: patent US12343318B2, “Use of compound or medicinal derivative thereof in inhibiting AIM2 protein activity” (Liangdan Sun, priority 2023, dated 2025)
